From article PMC5674221, “Harnessing fungal nonribosomal cyclodepsipeptide synthetases for mechanistic insights and tailored engineering” (Chemical Science, 2017)
Like-named read-outs stand apart in the source and are kept apart here.

Experiments:
[1] = test system: Bacillus subtilis STI:10880; assay: Antibacterial inhibition zone test, B. subtilis; assay type: cell-based; conditions: JMRC-No. STI:10880; Supplementary Table 5
Method: (§1) Bioactivity assays. Purified octa-enniatin B, octa-beauvericin and hexa-bassianolide were tested for antiparasitic, antibacterial and antifungal bioactivity together with standards of enniatin B, beauvericin and bassianolide. […]
(§2) For antibacterial testing, the following strains were used: Bacillus subtilis STI:10880, Psudomonas aeruginosa ST:337721 (multi-resistent), Staphylococcus aureus ST:33793, Enterococcus faecalis ST:33700 (vancomycin-resistent) and Mycobacterium vaccae STI:10670 (Supplementary […]
(§3) Aspergillus fumigatus Afum:00073 = ATCC46645 (Supplementary Table 6). The bacterial and fungal test strains are deposited at the Jena Microbial Resource Collection at www.jmrc.hki-jena.de. Activity was determined based on inhibition zone diameters in […]
(§4) (antifungal) in accordance to Krieg et al. (2017).10 […]
(§5) Supplementary Table 5: Antibacterial activity of natural and hybrid CDPs. Activity was analyzed by comparison of inhibition zone diameters. […]
(§6) p- Colonies in inhibition zone
(§7) P- Many colonies in inhibition zone
(§8) F- Promotion of inhibition zone
(§9) A- Intimation of inhibition […]

[2] = test system: Staphylococcus aureus ST:33793; assay: Antibacterial inhibition zone test, S. aureus; assay type: cell-based; conditions: JMRC-No. ST:33793; Supplementary Table 5
Method: as §1, §2, §3, §4, §5, §6, §7, §8, §9

[3] = test system: Mycobacterium vaccae STI:10670; assay: Antibacterial inhibition zone test, M. vaccae; assay type: cell-based; conditions: JMRC-No. STI:10670; Supplementary Table 5
Method: as §1, §2, §3, §4, §5, §6, §7, §8, §9

[4] = test system: Trypanosoma cruzi Tulahuen C4 (amastigotes); assay: microbe, parasite or virus in culture; conditions: for IC50: read-out: IC50 Trypanosoma cruzi; for fold lower IC50 against T. cruzi than the reference drug benznidazole: given as 'up to'
Method: Bioactivity assays. Purified octa-enniatin B, octa-beauvericin and hexa-bassianolide were tested for antiparasitic, antibacterial and antifungal bioactivity together with standards of enniatin B, beauvericin and bassianolide. Antiparasitic activity assays were performed against Trypanosoma brucei rhodesiense STIB 900 (trypomastigotes), Trypanosoma cruzi Tulahuen C4 (amastigotes) and Leishmania donovani MHOM-ET-67/L82 (host free axenic amastigotes) to determine the IC50 values as previously described by Orhan et al. (2010) (Supplementary Table 4).9 Additionally, cytotoxicity was determined with an L6 rat-derived cell line (Supplementary Table 4). […]
Supplementary Table 4: Antiparasitic activity and cytotoxicity of natural and hybrid CDPs. Antiparasitic activity was analyzed against Trypanosoma brucei rhodesiense STIB 900 (trypomastigotes), Trypanosoma cruzi Tulahuen C4 (amastigotes) and Leishmania donovani MHOM-ET-67/L82 (host free axenic amastigotes) as IC50-values.
(§10) Cytotoxicity was analyzed with rat-derived L6 cells. […]

[5] = test system: Leishmania donovani MHOM-ET-67/L82 (host free axenic amastigotes); assay: microbe, parasite or virus in culture; conditions: for IC50: read-out: IC50 Leishmania donovani
Method: as §1
(§11) Supplementary Table 4: Antiparasitic activity and cytotoxicity of natural and hybrid CDPs. Antiparasitic activity was analyzed against Trypanosoma brucei rhodesiense STIB 900 (trypomastigotes), Trypanosoma cruzi Tulahuen C4 (amastigotes) and Leishmania donovani MHOM-ET-67/L82 (host free axenic amastigotes) as IC50-values. […]

[6] = test system: Trypanosoma brucei rhodesiense STIB 900 (trypomastigotes); assay: microbe, parasite or virus in culture
Method: as §1, §11

Cytotoxicity, L6 cells = conditions: rat
Method: as §1
67/L82 (host free axenic amastigotes) to determine the IC50 values as previously described by Orhan et al. (2010) (Supplementary Table 4).9 Additionally, cytotoxicity was determined with an L6 rat-derived cell line (Supplementary Table 4). […]
Supplementary Table 4: Antiparasitic activity and cytotoxicity of natural and hybrid CDPs. […]
as §10

[7] = test system: Sporobolomyces salmonicolor ST:35974; assay: Antifungal inhibition zone test, S. salmonicolor; assay type: cell-based; conditions: JMRC-No. ST:35974; Supplementary Table 6; solvent gave 10
Method: as §1
(§12) Table 5). Antifungal activity was determined against Sporobolomyces salmonicolor […]
as §3, §4, §6, §7, §8
(§13) A- Intimation of inhibition
(§14) Supplementary Table 6: Antifungal activity of natural and hybrid CDPs. Activity was analyzed by comparison of inhibition zone diameters.

[8] = test system: Candida albicans STI:25000; assay: Antifungal inhibition zone test, C. albicans; assay type: cell-based; conditions: JMRC-No. STI:25000; Supplementary Table 6
Method: as §1, §12, §3, §4, §6, §7, §8, §13, §14

[9] = test system: Aspergillus fumigatus Afum:00073 = ATCC46645; assay: Antifungal inhibition zone test, A. fumigatus; assay type: cell-based; conditions: JMRC-No. ATCC 46645; Supplementary Table 6
Method: as §1, §12, §3, §4, §6, §7, §8, §13, §14

[10] = test system: Pseudomonas aeruginosa ST:337721 (multi-resistent); assay: Antibacterial inhibition zone test, P. aeruginosa; assay type: cell-based; conditions: JMRC-No. ST:337721; Supplementary Table 5; solvent gave 10
Method: as §1, §2, §3, §4, §5, §6, §7, §8, §9

[11] = test system: Enterococcus faecalis ST:33700 (vancomycin-resistent); assay type: cell-based; conditions: JMRC-No. ST:33700; Supplementary Table 5
Method: as §1, §2, §3, §4, §5, §6, §7, §8, §9

[12] = test system: Penicillium notatum STI:50164; assay: Antifungal inhibition zone test, P. notatum; assay type: cell-based; conditions: JMRC-No. STI:50164; Supplementary Table 6; solvent gave 10
Method: as §1, §12, §3, §4, §6, §7, §8, §13, §14

[13] = Tulahuen C4, amastigotes, Supplementary Table 4 and main text
[14] = MHOM-ET-67/L82, host free axenic amastigotes, Supplementary Table 4 and main text
[15] = read-out: IC50 Trypanosoma b. rhodesiense, STIB 900, trypomastigotes, Supplementary Table 4

O=C(O)c1cn(C2CC2)c2cc(N3CCNCC3)c(F)cc2c1=O [Ciprofloxacin, ciprofloxacin]
Inhibition zone diameter, Bacillus subtilis [1]: 29
Inhibition zone diameter, Staphylococcus aureus [2]: 0
Inhibition zone diameter, Mycobacterium vaccae [3]: 20p

CC(C)[C@H]1C(=O)O[C@H](C(C)C)C(=O)N(C)[C@@H](C(C)C)C(=O)O[C@H](C(C)C)C(=O)N(C)[C@@H](C(C)C)C(=O)O[C@H](C(C)C)C(=O)N1C [enniatin B]
IC50 [4, 13]: 2300 nM
IC50 [5, 14]: 719 nM
IC50 [6, 15]: 1050 nM
IC50 (Cytotoxicity, L6 cells): 4110 nM
Inhibition zone diameter, Bacillus subtilis [1]: 15p
Inhibition zone diameter, Staphylococcus aureus [2]: 15P
Inhibition zone diameter, Mycobacterium vaccae [3]: 24
Inhibition zone diameter, Sporobolomyces salmonicolor [7]: 0
Inhibition zone diameter, Candida albicans [8]: 0
Inhibition zone diameter, Aspergillus fumigatus [9]: 0

O=C(Cn1ccnc1[N+](=O)[O-])NCc1ccccc1 [Benznidazole, benznidazole]
IC50 ([4]; Trypanosoma cruzi, TULAHUEN): 6530 nM
IC50 (Cytotoxicity, L6 cells): > 380000 nM

CC(C)[C@H]1OC(=O)[C@H](Cc2ccccc2)N(C)C(=O)[C@@H](C(C)C)OC(=O)[C@H](Cc2ccccc2)N(C)C(=O)[C@@H](C(C)C)OC(=O)[C@H](Cc2ccccc2)N(C)C1=O [beauvericin]
IC50 [4, 13]: 764 nM
IC50 [5, 14]: 311 nM
IC50 [6, 15]: 1630 nM
IC50 (Cytotoxicity, L6 cells): 1940 nM
Inhibition zone diameter, Bacillus subtilis [1]: 18
Inhibition zone diameter, Pseudomonas aeruginosa (multi-resistent) [10]: 14P
Inhibition zone diameter, Staphylococcus aureus [2]: 13
Inhibition zone diameter, Enterococcus faecalis (vancomycin-resistent) [11]: 18F
Inhibition zone diameter, Mycobacterium vaccae [3]: 27
Inhibition zone diameter, Sporobolomyces salmonicolor [7]: 0
Inhibition zone diameter, Candida albicans [8]: 0
Inhibition zone diameter, Penicillium notatum [12]: 14p

CCCCCCCCCCCCCCCCOP(=O)([O-])OCC[N+](C)(C)C [Miltefosine, miltefosine]
IC50 ([5]; Leishmania donovani): 576 nM
IC50 (Cytotoxicity, L6 cells): 138000 nM

Nc1nc(N)nc(Nc2ccc([As]3SCC(CO)S3)cc2)n1 (stereo not drawn) [Melarsoprol, melarsoprol]
IC50 ([6]; Trypanosoma brucei, RHODESIENSE|STIB900, read-out: IC50 Trypanosoma b. rhodesiense): 7 nM
IC50 (Cytotoxicity, L6 cells): 28600 nM

CC(C)C[C@H]1C(=O)O[C@H](C(C)C)C(=O)N(C)[C@@H](CC(C)C)C(=O)O[C@H](C(C)C)C(=O)N(C)[C@@H](CC(C)C)C(=O)O[C@H](C(C)C)C(=O)N(C)[C@@H](CC(C)C)C(=O)O[C@H](C(C)C)C(=O)N1C [bassianolide]
IC50 [4, 13]: 1390 nM
IC50 [5, 14]: 195 nM
IC50 [6, 15]: 1690 nM
IC50 (Cytotoxicity, L6 cells): 5110 nM
Inhibition zone diameter, Bacillus subtilis [1]: 0
Inhibition zone diameter, Pseudomonas aeruginosa (multi-resistent) [10]: 0
Inhibition zone diameter, Staphylococcus aureus [2]: 0
Inhibition zone diameter, Enterococcus faecalis (vancomycin-resistent) [11]: 0
Inhibition zone diameter, Mycobacterium vaccae [3]: 12p
Inhibition zone diameter, Sporobolomyces salmonicolor [7]: 0
Inhibition zone diameter, Candida albicans [8]: 0
Inhibition zone diameter, Penicillium notatum [12]: 0
Inhibition zone diameter, Aspergillus fumigatus [9]: 0

CC(C)[C@H]1C(=O)O[C@H](C(C)C)C(=O)N(C)[C@@H](C(C)C)C(=O)O[C@H](C(C)C)C(=O)N(C)[C@@H](C(C)C)C(=O)O[C@H](C(C)C)C(=O)N(C)[C@@H](C(C)C)C(=O)O[C@H](C(C)C)C(=O)N1C [octa-enniatin B]
fold lower IC50 against T. cruzi than the reference drug benznidazole [4]: up to 12 fold
IC50 [4, 13]: 1750 nM
IC50 [5, 14]: 70 nM
IC50 [6, 15]: 873 nM
IC50 (Cytotoxicity, L6 cells): 3900 nM

CC(C)[C@H]1OC(=O)[C@H](Cc2ccccc2)N(C)C(=O)[C@@H](C(C)C)OC(=O)[C@H](Cc2ccccc2)N(C)C(=O)[C@@H](C(C)C)OC(=O)[C@H](Cc2ccccc2)N(C)C(=O)[C@@H](C(C)C)OC(=O)[C@H](Cc2ccccc2)N(C)C1=O [octa-beauvericin]
fold lower IC50 against T. cruzi than the reference drug benznidazole [4]: up to 12 fold
IC50 [4, 13]: 533 nM
IC50 [5, 14]: 144 nM
IC50 [6, 15]: 782 nM
IC50 (Cytotoxicity, L6 cells): 1580 nM
Inhibition zone diameter, Bacillus subtilis [1]: 0
Inhibition zone diameter, Pseudomonas aeruginosa (multi-resistent) [10]: 0
Inhibition zone diameter, Staphylococcus aureus [2]: 0
Inhibition zone diameter, Enterococcus faecalis (vancomycin-resistent) [11]: 0
Inhibition zone diameter, Mycobacterium vaccae [3]: 12p
Inhibition zone diameter, Sporobolomyces salmonicolor [7]: 0
Inhibition zone diameter, Candida albicans [8]: 0
Inhibition zone diameter, Penicillium notatum [12]: 0

CC(C)C[C@H]1C(=O)O[C@H](C(C)C)C(=O)N(C)[C@@H](CC(C)C)C(=O)O[C@H](C(C)C)C(=O)N(C)[C@@H](CC(C)C)C(=O)O[C@H](C(C)C)C(=O)N1C [hexa-bassianolide]
activity against Trypanosoma cruzi (in words) [4]: active
IC50 [4, 13]: 3520 nM
activity against Leishmania donovani (in words) [5]: active
IC50 [5, 14]: 315 nM
activity against Trypanosoma b. rhodesiense (in words) [6]: active
IC50 [6, 15]: 1260 nM
IC50 (Cytotoxicity, L6 cells): 6350 nM
Inhibition zone diameter, Bacillus subtilis [1]: 10
Inhibition zone diameter, Staphylococcus aureus [2]: 0
Inhibition zone diameter, Enterococcus faecalis (vancomycin-resistent) [11]: 0
Inhibition zone diameter, Mycobacterium vaccae [3]: 14p
Inhibition zone diameter, Sporobolomyces salmonicolor [7]: 0
Inhibition zone diameter, Candida albicans [8]: 0
Inhibition zone diameter, Penicillium notatum [12]: 0
Inhibition zone diameter, Aspergillus fumigatus [9]: 0

C[C@@H]1[C@H](O)[C@@H](C)/C=C/C=C/C=C/C=C/C=C/C=C/C=C/[C@H](O[C@@H]2O[C@H](C)[C@@H](O)[C@H](N)[C@@H]2O)C[C@@H]2O[C@](O)(C[C@@H](O)C[C@@H](O)[C@H](O)CC[C@@H](O)C[C@@H](O)CC(=O)O[C@H]1C)C[C@H](O)[C@H]2C(=O)O [Amphotericin B, amphotericin B]
Inhibition zone diameter, Sporobolomyces salmonicolor [7]: 18p
Inhibition zone diameter, Candida albicans [8]: 20
Inhibition zone diameter, Penicillium notatum [12]: 18p
Inhibition zone diameter, Aspergillus fumigatus [9]: 20
